# Measured values: patent US7449190B2 (priority 2002, dated 2008)
# What was measured:
# [1] = system: interaction of NP with VP35; assay type: biochemical, Ebola virus
# HIV gp160 = assay type: cell-based
# NP = assay type: cell-based, Ebola virus
molecule,measurement,setting,value
O=C(N[C@H]1[C@@H](OCc2ccccc2)O[C@H](CO)[C@@H](O)[C@@H]1O)OCc1ccccc1 [benzyl Z-a-D-glucosaminide],effect in the in vitro transcription/translation system (NP synthesis or association of NP with VP35 and VP24),[1],without any effect
C[C@H]1CCC/C=C/[C@@H]2C[C@H](O)C[C@H]2[C@H](O)/C=C/C(=O)O1 [Brefeldin A],effect in the in vitro transcription/translation system (NP synthesis or association of NP with VP35 and VP24),[1],without any effect
CC(=O)N[C@H]1[C@@H](OCc2ccccc2)O[C@H](CO)[C@H](O)[C@@H]1O[C@@H]1O[C@H](CO)[C@H](O)[C@H](O)[C@H]1O [benzyl 2-acetamido-2-deoxy-3-O-b-D-galactopyranosyl-a-D-galactopyranoside],effect in the in vitro transcription/translation system (NP synthesis or association of NP with VP35 and VP24),[1],without any effect
CC(=O)N[C@H]1[C@H](OCc2ccccc2)O[C@H](CO)[C@@H](O)[C@@H]1O [benzyl 2-acetamido-2-deoxy-b-D-glucopyranoside],effect in the in vitro transcription/translation system (NP synthesis or association of NP with VP35 and VP24),[1],without any effect
O=C(N[C@H]1[C@H](OCc2ccccc2)O[C@H](CO)[C@@H](O)[C@@H]1O)OCc1ccccc1 [benzyl Z-b-D-glucosaminide],effect in the in vitro transcription/translation system (NP synthesis or association of NP with VP35 and VP24),[1],without any effect
tunicamycin,expression of HIV gp160,HIV gp160,abolished
same,effect on NP migration (glycosylation) in NP-transfected 293 cells,NP,No effect
same,synthesis of NP in NP-transfected 293 cells,NP,unaffected
CC(=O)N[C@H]1[C@@H](OCc2ccccc2)O[C@H](CO)[C@H](O)[C@@H]1O [benzyl 2-acetamido-2-deoxy-a-D-galactopyranoside],effect in the in vitro transcription/translation system (NP synthesis or association of NP with VP35 and VP24),[1],without any effect
"CCCCCCCCO[C@H]1O[C@H](COC(C)=O)[C@@H](OC(C)=O)[C@H](OC(C)=O)[C@@H]1OC(C)=O [AcManα1-OC8, acetylated Manα1-O-octyl]",inhibition of the interaction of NP with VP35,[1],not seen
OC[C@H]1NC[C@@H](O)[C@@H](O)[C@@H]1O [deoxymannojirimycin],effect on NP migration (glycosylation) in NP-transfected 293 cells,NP,No effect
"CCCCCCCCO[C@H]1O[C@H](CO)[C@@H](O)[C@H](O)[C@@H]1O [Manα1-OC8, mannose α1-O-octyl]",dose dependence of inhibition of NP/VP35 interaction,[1],dose-dependent
same,inhibition of NP/VP35 interaction when added after translation,[1],did not inhibit
same,inhibition of the interaction of NP with VP35,[1],substantially reduced
CC(=O)N[C@H]1[C@@H](Oc2ccccc2)O[C@H](CO)[C@H](O)[C@@H]1O [phenyl N-acetyl-a-D-galactosaminide],effect in the in vitro transcription/translation system (NP synthesis or association of NP with VP35 and VP24),[1],without any effect
